Results taken from patent US9340549B2, “Oxazolidinone compounds and derivatives thereof” (priority 2012, dated 2016).
Like-named read-outs stand apart in the source and are kept apart here.

How the values were obtained:
[1] = test system: total β-catenin in SW480 colorectal cells; assay: cells; format: cell-based
Procedure: Total β-Catenin MSD 96-Well Plate Assay for SW480 Cells
SW480 colorectal cells were seeded at a density of 10,000/well in CellBIND 96-well plates (Corning catalog no. 3300) in 60 μL of normal growth medium (MEM alpha supplemented with 10% heat inactivated FBS, GlutaMAX, pyruvate, and 10 mM HEPES).
A 10-point, 3-fold dilution series for each TNKS inhibitor was constructed in a 96-well “stock” plate. […] The plates were incubated at 37° C. for 40 to 48 hours. The media was removed from the CellBIND plate via plate inversion and gentle shaking and the inverted plate was touched to a paper towel and immediately placed on ice. […] Plates containing cell lysates were sealed and shaken for one hour at 4° C. and then quickly frozen in a −80° C. for approximately 15 to 30 minutes followed by gradually thawing at 4° C. Finally, lysate containing plates were centrifuged @1000×g (2073 rpm) for 10 minutes at 4° C.
The sealed MSD plate was incubated overnight in a cold room with gentle shaking. The MSD plate was then blocked with 150 μL of Blocker “A” per well and incubated overnight at 4° C. with vigorous shaking. The blocked MSD plate was washed 4 times with 150 μL/well TBS-T wash buffer (150 mM NaCl, 50 mM Tris, pH 7.5, 0.02% Tween-20). Cell lysates (75 μL) were transferred to prepared MSD plates and incubated at 4° C. ON with gentle shaking. […] The detection antibody was incubated for 1 hour at room temperature with vigorous shaking after which plates were washed 3 times with 150 μL/well TBS-T wash buffer. Plates were processed for analysis by the addition of 150 μL/well MSD Read 4× Buffer T with surfactant (catalog no. R92TC-2; diluted 1:3 in deionized water) and were read on the SECTOR Imager 6000.

[2] = test system: Axin2 in SW480 cells; assay: cells; format: cell-based; settings: Homo sapiens, read-out: Axin2 384 IF EC50 IP
Procedure: Using a VPrep, 10 μL of compound/controls was transferred from the compound plate to 60 μL in the cell plate (final 0.5% DMSO, 70 μL). The mixture was incubated for 24 hours at 37° C. at 5% CO2.
The extra media was tapped out. 50 μL of 4% paraformaldehyde (Fisher, AA433689M), 0.1% Triton (Sigma, X100-100 ML) in PBS were added, and the mixture was incubated for 15 minutes at room temperature. […] The extra media was tapped out and to this was added 50 μL of buffer containing Axin2 Antibody (Sigma, SAB1100677-200 µL) at 1:10000 in PBS, 0.1% Tween-20, 1% Normal Goat Serum. The mixture was incubated for 2 hours at room temperature or overnight at 4° C. The cells were then washed twice with PBS, 0.1% Tween-20, and 1% Normal Goat Serum. […] The mixture was then incubated for 30 minutes at room temperature. The cells were then washed twice with PBS, 0.1% Tween-20, and 1% Normal Goat Serum. 50-100 μL PBS was added, and the mixture was covered with a plate seal (Fisher, NC9425162). An ArrayScan (a variation of the compartmental analysis protocol was optimized) was used to scan the plates, and data was analyzed using MEAN_RingSpotAvgIntenCh2). The Axin2 accumulation POC was calculated, and the EC50 was determined using Genedata Screener software to report Axin2 activity.

[3] = molecular target: 6×HIS-tankyrase 1 (1091-1325) (Homo sapiens (Human), UniProt O95271); assay: biochemical; format: biochemical; settings: 400 nM NAD, 60 minutes at room temperature, read-out: TNKS1 IP IC50
[4] = Homo sapiens, SW480 cells, 40 to 48 hours, top concentration 10 μM, read-out: SW480-Total β-Catenin IC50 IP
[5] = SW480, 24 h, SW480 cells, 24 hours
[6] = Homo sapiens, SW480, read-out: SW480-Total β-Catenin IC50 IP

Sequence of 6×HIS-tankyrase 1 (1091-1325) (O95271 1091-1325): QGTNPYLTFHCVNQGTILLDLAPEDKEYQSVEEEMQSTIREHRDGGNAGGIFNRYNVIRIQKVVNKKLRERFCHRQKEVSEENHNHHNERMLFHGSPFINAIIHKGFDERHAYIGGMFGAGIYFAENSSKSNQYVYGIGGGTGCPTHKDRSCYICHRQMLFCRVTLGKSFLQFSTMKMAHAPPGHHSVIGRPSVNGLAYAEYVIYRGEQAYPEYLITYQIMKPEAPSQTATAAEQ

Molecule | IC50 [1, 4] [nM] | EC50 [2, 5] [nM] | IC50 ([3]; […] enzyme) [nM] | also measured
CC1(C)OC(=O)N([C@H]2CC[C@H](n3c(=O)[nH]c4cc(Cl)ccc43)CC2)[C@H]1c1ccccc1 [Example 29, (S)-3-((1r,4S)-4-(5-chloro-2-oxo-2,3-dihydro-1H-benzo[d]imidazol-1-yl)cyclohexyl)-5,5-dimethyl-4-phenyloxazolidin-2-one] | 536 | 2560 |  | 
CC1(C)OC(=O)N([C@H]2CC[C@H](n3c(=O)[nH]c4cc(Br)cnc43)CC2)[C@H]1c1ccccc1 [Example 56, (S)-3-((1r,4S)-4-(6-bromo-2-oxo-1H-imidazo[4,5-b]pyridin-3(2H)-yl)cyclohexyl)-5,5-dimethyl-4-phenyloxazolidin-2-one] | 651 |  |  | EC50 ([2]; SW480 cells, 24 hours): 676 nM
CC1(C)OC(=O)N([C@H]2CC[C@@H](c3cnc(N)c(-c4ncccn4)c3)CC2)[C@H]1c1ccccc1 (racemic) [Example 72, 3-((1s,4s)-4-(6-amino-5-(pyrimidin-2-yl)pyridin-3-yl)cyclohexyl)-5,5-dimethyl-4-phenyloxazolidin-2-one] |  |  |  | IC50 [1, 6]: 6550 nM; EC50 ([2]; SW480, 24 h): 5810 nM
CC1(C)OC(=O)N(c2ccc(-c3cc(-c4ncco4)c[nH]c3=O)cc2)[C@H]1c1ccccc1 [Example 116, (S)-5,5-dimethyl-3-(4-(5-(oxazol-2-yl)-2-oxo-1,2-dihydropyridin-3-yl)phenyl)-4-phenyloxazolidin-2-one] | 906 | > 6250 |  | 
COc1ccc([C@H]2N(c3ccc(C(=O)Nc4cccc5cccnc45)cc3)C(=O)OC2(C)C)cc1 [Example 112, (R)-4-(4-(4-methoxyphenyl)-5,5-dimethyl-2-oxooxazolidin-3-yl)-N-(quinolin-8-yl)benzamide] |  | > 25000 | 2750 | 
CC1(C)OC(=O)N([C@H]2CC[C@H](c3cnc(N)c(-c4ncccn4)c3)CC2)[C@H]1c1ccccc1 (racemic) [Example 73, 3-((1r,4r)-4-(6-amino-5-(pyrimidin-2-yl)pyridin-3-yl)cyclohexyl)-5,5-dimethyl-4-phenyloxazolidin-2-one] |  |  |  | IC50 [1, 6]: 95.2 nM; EC50 ([2]; SW480, 24 h): 202 nM
CC1(C)OC(=O)N(c2ccc(C(=O)Nc3cccc4cccnc34)cc2)[C@@H]1c1cccnc1 [Example 10, (R)-4-(5,5-dimethyl-2-oxo-4-(pyridin-3-yl)oxazolidin-3-yl)-N-(quinolin-8-yl)benzamide] |  | > 25000 | 4450 | 
CC1(C)OC(=O)N([C@H]2CC[C@H](n3c(=O)[nH]c4ncccc43)CC2)[C@@H]1c1ccccc1 [Example 31, (R)-5,5-dimethyl-3-((1r,4R)-4-(2-oxo-2,3-dihydro-1H-imidazo[4,5-b]pyridin-1-yl)cyclohexyl)-4-phenyloxazolidin-2-one] | 2660 | 17500 |  | 
O=C(Nc1cccc2cccnc12)c1ccc(N2C(=O)OC3(CCCCC3)C2c2ccccc2)cc1 (centres unmarked) [Example 46, (R+S) 4-(2-oxo-4-phenyl-1-oxa-3-azaspiro[4.5]decan-3-yl)-N-(quinolin-8-yl)benzamide] |  |  | 5170 | EC50 ([2]; SW480, 24 h): > 25000 nM
CC1(C)OC(=O)N(c2ccn3c(Nc4ccnc5cccnc45)nnc3c2)[C@H]1c1ccccc1 [Example 71, (S)-3-(3-((1,5-naphthyridin-4-yl)amino)-[1,2,4]triazolo[4,3-a]pyridin-7-yl)-5,5-dimethyl-4-phenyloxazolidin-2-one] |  | > 25000 | 503 | 
(S)-3-(4-(6-amino-5-(5-chloropyridazin-3-yl)pyridin-3-yl)phenyl)-5,5-dimethyl-4-phenyloxazolidin-2-one [Example 100] |  |  | 220 | IC50 ([1]; SW480 cells, 40 to 48 hours, top concentration 10 μM, read-out: SW480-Total β-Catenin IC50 IP): 3380 nM
CC1(C)OC(=O)N(c2ccc(C(=O)Nc3cccc4cccnc34)cc2)[C@@H]1c1ccncc1 [Example 125, (R)-4-(5,5-dimethyl-2-oxo-4-(pyridin-4-yl)oxazolidin-3-yl)-N-(quinolin-8-yl)benzamide] |  | > 25000 | 7910 | 
CC1(C)OC(=O)N([C@H]2CC[C@H](c3nnc(-c4ccccc4)o3)CC2)[C@H]1c1ccccc1 [Example 85, (S)-5,5-dimethyl-4-phenyl-3-((1r,4S)-4-(5-phenyl-1,3,4-oxadiazol-2-yl)cyclohexyl)oxazolidin-2-one] | 2410 |  | 45.2 | 
CC1(C)OC(=O)N(c2ccc(C(=O)Nc3nccc4cccnc34)cc2)[C@H]1c1ccccc1 [Example 20, (S)-4-(5,5-dimethyl-2-oxo-4-phenyloxazolidin-3-yl)-N-(1,7-naphthyridin-8-yl)benzamide] | 5330 |  | 1480 | 
CC1(C)OC(=O)N(c2ccc(C(=O)Nc3cccc4cccnc34)cc2)[C@@H]1c1cccc(F)c1 [Example 109, (R)-4-(4-(3-fluorophenyl)-5,5-dimethyl-2-oxooxazolidin-3-yl)-N-(quinolin-8-yl)benzamide] |  | > 25000 | 5530 | 
CC1(C)OC(=O)N([C@H]2CC[C@H](n3c(=O)[nH]c4c(F)cc(F)cc43)CC2)[C@H]1c1ccccc1 [Example 104, (S)-3-((1r,4S)-4-(4,6-difluoro-2-oxo-2,3-dihydro-1H-benzo[d]imidazol-1-yl)cyclohexyl)-5,5-dimethyl-4-phenyloxazolidin-2-one] | > 10000 |  | 93 | 
CC1(C)OC(=O)N([C@@H]2CC=C(c3cnc4cc[nH]c4c3)CC2)[C@H]1c1ccccc1 (mixture of isomers) [Example 169, mixture of (S)-3-((S)-4-(1H-pyrrolo[3,2-b]pyridin-6-yl)cyclohex-3-en-1-yl)-5,5-dimethyl-4-phenyloxazolidin-2-one and (S)-3-((R)-4-(1H-pyrrolo[3,2-b]pyridin-6-yl)cyclohex-3-en-1-yl)-5,5-dimethyl-4-phenyloxazolidin-2-one] | 3180 |  | 88.6 | 
CC1(C)OC(=O)N(c2ccc(-c3cnc(N)c(-c4nccc(C(=N)N)n4)c3)cc2)[C@H]1c1ccccc1 [Example 99, (S)-2-(2-amino-5-(4-(5,5-dimethyl-2-oxo-4-phenyloxazolidin-3-yl)phenyl)pyridin-3-yl)pyrimidine-4-carboximidamide] |  |  |  | IC50 ([3]; 0.25 nM enzyme): 14.3 nM; IC50 [1, 6]: 620 nM
C[C@]1(c2ccccc2)CN([C@H]2CC[C@H](n3c(=O)[nH]c4cc(C#N)ccc43)CC2)C(=O)O1 (single isomer, unassigned) [Example 94] | 3010 |  | 270 | 
COc1cccc([C@@H]2N(c3ccc(C(=O)Nc4cccc5cccnc45)cc3)C(=O)OC2(C)C)c1 [Example 107, (S)-4-(4-(3-Methoxyphenyl)-5,5-dimethyl-2-oxooxazolidin-3-yl)-N-(quinolin-8-yl)benzamide] | 2360 |  | 89.9 | 
CC1(C)OC(=O)N(c2ccc(-n3c(=O)[nH]c4ccccc43)cc2)[C@H]1c1ccccc1 [Example 19, (S)-5,5-dimethyl-3-(4-(2-oxo-2,3-dihydro-1H-benzo[d]imidazol-1-yl)phenyl)-4-phenyloxazolidin-2-one] | 8630 |  | 863 | 
CC1(C)OC(=O)N(c2ccc(C(=O)Nc3cccc4cccnc34)cc2)C1c1ccncc1 (racemic) [Example 124, (+/−)-(R/S)-4-(5,5-dimethyl-2-oxo-4-(pyridin-4-yl)oxazolidin-3-yl)-N-(quinolin-8-yl)benzamide] | 1500 |  |  | IC50 ([3]; 0.25 nM enzyme): 767 nM
